Structures are written as SMILES. “Also recorded” adds a separate entry of the source. Where two headings read alike, the source gives them in different places.

Experimental findings from publication PMC4912077 (PLoS ONE, 2016) are described below.

One experiment addresses T1, Alpha2C (Homo sapiens, UniProt P18825).
T1 sequence (P18825 1-462): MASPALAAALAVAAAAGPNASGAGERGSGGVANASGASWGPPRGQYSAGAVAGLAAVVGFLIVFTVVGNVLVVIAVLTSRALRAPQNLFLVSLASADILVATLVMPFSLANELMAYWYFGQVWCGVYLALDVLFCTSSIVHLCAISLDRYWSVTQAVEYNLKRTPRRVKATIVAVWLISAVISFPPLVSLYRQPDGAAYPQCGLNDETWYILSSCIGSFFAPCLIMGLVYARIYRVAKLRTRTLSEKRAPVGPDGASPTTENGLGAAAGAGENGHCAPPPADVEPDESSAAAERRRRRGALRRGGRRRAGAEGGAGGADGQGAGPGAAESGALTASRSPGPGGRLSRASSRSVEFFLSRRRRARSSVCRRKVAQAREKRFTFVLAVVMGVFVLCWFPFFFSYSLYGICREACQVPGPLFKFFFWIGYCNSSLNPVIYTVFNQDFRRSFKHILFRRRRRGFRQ
As to the kind of experiment: NIMH PDSP radioligand binding, Alpha2C. As for the experimental part:
(§1) Radioligands and concentrations used for additional 45 CNS receptor binding assays are listed as supporting information (S1 Table). This work was performed by the National Institute of Mental Health Psychoactive Drug Screening Program (NIMH PDSP) as described previously.[26] Briefly target compounds were dissolved in DMSO and subjected to a primary screen at 10,000 nM concentration. […] Additional experimental details are available in the NIMH PDSP assay protocol book.

The target in another experiment is M5 (Homo sapiens, UniProt P08912). Description: NIMH PDSP radioligand binding, M5.
M5, sequence (P08912 whole entry): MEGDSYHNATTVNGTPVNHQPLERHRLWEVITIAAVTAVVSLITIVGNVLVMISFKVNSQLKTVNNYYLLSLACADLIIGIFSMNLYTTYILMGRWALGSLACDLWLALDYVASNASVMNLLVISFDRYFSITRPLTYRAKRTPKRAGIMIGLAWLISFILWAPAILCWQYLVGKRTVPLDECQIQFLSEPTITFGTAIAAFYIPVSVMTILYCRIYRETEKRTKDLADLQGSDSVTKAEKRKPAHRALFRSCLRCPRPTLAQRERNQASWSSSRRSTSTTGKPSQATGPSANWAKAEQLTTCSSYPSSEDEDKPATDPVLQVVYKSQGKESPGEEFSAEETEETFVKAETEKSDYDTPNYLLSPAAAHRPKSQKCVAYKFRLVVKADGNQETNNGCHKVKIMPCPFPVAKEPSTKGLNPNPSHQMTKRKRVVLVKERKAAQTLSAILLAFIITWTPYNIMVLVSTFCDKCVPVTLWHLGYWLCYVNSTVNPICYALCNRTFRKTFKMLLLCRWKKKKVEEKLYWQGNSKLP
A further experiment has as its system Sprague–Dawley rats. As to the kind of experiment: Pre-pulse inhibition (PPI) of acoustic startle in rats. The following applies: for ED50: sc, rat, subcutaneous, read-out: ED50 for reduction of average PPI. In kind it is in vivo, rat. As for the experimental part: Male Sprague–Dawley rats from Harlan Industries (Indianapolis, IN, USA; initial weight 250–275 g) were housed in pairs under a 12-h reverse light/dark cycle (lights off at 0700 h). Use of a reversed light/dark cycle allows behavioral testing to be conducted during the awake phase of the light/dark cycle. Food and water were available ad libitum. Animals were acclimatized for approximately 1 wk after arrival prior to behavioral testing and maintained in Association for Assessment and Accreditation of Laboratory Animal Care (AAALAC)-approved facilities that meet all federal and state guidelines. Procedures were approved by the University of California San Diego institutional animal care and use committee. Principles of laboratory animal care were followed.
DPH hydrochloride and 2-MXP hydrochloride were dissolved in water containing 5% Tween-80 and administered subcutaneously, 10-min prior to the start of the startle test session. The injection volume was 1 ml/kg.
Eight startle chambers (SR-LAB system, San Diego Instruments, San Diego, CA, USA) were used to measure startle reactivity in rats. The startle test chambers were sound-attenuated, lighted, and ventilated enclosures containing a clear nonrestrictive cylindrical Plexiglas stabilimeter, 8.2 cm in diameter. A high-frequency loudspeaker mounted 24 cm above the Plexiglas cylinder produced all acoustic stimuli. The peak and average amplitudes of the startle response were detected by a piezoelectric accelerometer. At the onset of the startling stimulus, 100 1-ms readings were recorded, and the average amplitude was used to determine the magnitude of the startle response (measured in arbitrary units).
Acoustic startle test sessions consisted of startle trials (pulse-alone) and prepulse trials (prepulse + pulse). The pulse-alone trial consisted of a 40-ms 120-dB pulse of broadband white noise. Prepulse + pulse trials consisted of a 20-ms acoustic prepulse, an 80-ms delay, and then a 40-ms 120-dB startle pulse (100-ms onset–onset). There was an average of 15 s (range = 6–22 s) between trials. During each inter-trial interval, the movements of the animals were recorded once to measure response when no stimulus was present (data not shown). Each startle session began with a 5 min acclimation period to a 65-dB broadband noise that was present continuously throughout the session. One week after arrival, animals were tested in a brief baseline startle/PPI session to create treatment groups matched for levels of startle and PPI. The startle test session contained 12 pulse-alone trials and 36 prepulse + pulse trials (12 prepulses each of 68-, 71-, and 77-dB [equivalent to 3-, 6-, and 12-dB above background]) presented in a pseudo-randomized order. Six pulse-alone trials were presented at the beginning and the end of the test session but were not used in the calculation of PPI values. Raw data for all PPI experiments are provided as supporting information (S5 File).
The amount of PPI was calculated as a percentage score for each prepulse + pulse trial type: %PPI = 100−{[(startle response for prepulse + pulse trial)/(startle response for pulse-alone trial)] × 100}. Startle magnitude was calculated as the average response to all of the pulse-alone trials. PPI data were analyzed with two-factor analysis of variance (ANOVA) with treatment as the between-subjects factor and trial type (prepulse intensity) as a repeated measure. For experiments in which there was no significant interaction between drug and prepulse intensity, PPI data were collapsed across prepulse intensity and average PPI was used as the main dependent measure. ED50 values were calculated using nonlinear regression. Startle magnitude data were analyzed with one-factor ANOVA. Post-hoc analyses were performed using Tukey’s studentized range method. The alpha level was set at 0.05.

The next experiment concerns the target Alpha2A (Homo sapiens, UniProt P08913). Description: NIMH PDSP radioligand binding, Alpha2A. On the procedure:
as §1

The next experiment addresses T2, Human SERT (Homo sapiens, UniProt P31645).
T2 construct: expressed in transfected cells; host or cells: HEK293
As to the kind of experiment: Monoamine reuptake inhibition assay, SERT in HEK293 cells. In kind it is cell-based. On the procedure: Monoamine reuptake inhibition assays were performed via the NIMH PDSP as previously described.[28] In brief, the neurotransmitter transporter uptake assay kit (R8174) (Molecular Devices) was used. Human monoamine transporters (DAT, NET and SERT) were stably expressed in HEK293 cells. Assay buffer consisted of 20 mM HEPES, 1x HBSS at pH 7.4. Cells were plated in Pol-L-Lys (PLL) coated 384-well black clear bottom cell culture plates with a density of 15,000 cells/well. Cells were incubated for at least 6 h prior to assay. Media was removed and replaced with 20 μL assay buffer and 5 μL of drug or positive control (cocaine or nisoxetine) as a 5X stock. Cells were incubated for 30 min at 37°C. 25 μL of dye solution was then added and following an additional 30 min incubation (at 37°C) fluorescence intensity was measured using a FlexStation II (bottom read mode, excitation wavelength = […], emission = 520 nM with a cutoff of 510 nM). […] Additional details are available in the NIMH PDSP assay protocol book.

Another experiment deals with Alpha2B (Homo sapiens, UniProt P18089). As to the kind of experiment: NIMH PDSP radioligand binding, Alpha2B. On the procedure:
as §1

A further experiment concerns the target H3 (Homo sapiens, UniProt Q9Y5N1). As to the kind of experiment: NIMH PDSP radioligand binding, H3. On the procedure: as §1
The target of another experiment is M1 (Homo sapiens, UniProt P11229). As to the kind of experiment: NIMH PDSP radioligand binding, M1.
M1, sequence (P11229 whole entry): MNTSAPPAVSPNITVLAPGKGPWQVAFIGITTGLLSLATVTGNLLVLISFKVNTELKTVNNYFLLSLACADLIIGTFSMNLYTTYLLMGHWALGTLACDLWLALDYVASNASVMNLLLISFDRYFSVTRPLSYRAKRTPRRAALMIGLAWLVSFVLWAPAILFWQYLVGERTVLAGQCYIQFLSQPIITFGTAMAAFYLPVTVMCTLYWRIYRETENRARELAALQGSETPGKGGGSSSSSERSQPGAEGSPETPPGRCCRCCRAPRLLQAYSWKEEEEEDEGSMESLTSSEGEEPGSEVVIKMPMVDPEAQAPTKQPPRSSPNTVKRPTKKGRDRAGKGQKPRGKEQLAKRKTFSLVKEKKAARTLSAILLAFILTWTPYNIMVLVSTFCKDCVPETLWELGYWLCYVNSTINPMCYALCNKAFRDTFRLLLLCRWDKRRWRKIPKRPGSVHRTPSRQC
A further experiment addresses M2 (Homo sapiens, UniProt P08172). As to the kind of experiment: NIMH PDSP radioligand binding, M2.

T2 sequence (P31645 whole entry): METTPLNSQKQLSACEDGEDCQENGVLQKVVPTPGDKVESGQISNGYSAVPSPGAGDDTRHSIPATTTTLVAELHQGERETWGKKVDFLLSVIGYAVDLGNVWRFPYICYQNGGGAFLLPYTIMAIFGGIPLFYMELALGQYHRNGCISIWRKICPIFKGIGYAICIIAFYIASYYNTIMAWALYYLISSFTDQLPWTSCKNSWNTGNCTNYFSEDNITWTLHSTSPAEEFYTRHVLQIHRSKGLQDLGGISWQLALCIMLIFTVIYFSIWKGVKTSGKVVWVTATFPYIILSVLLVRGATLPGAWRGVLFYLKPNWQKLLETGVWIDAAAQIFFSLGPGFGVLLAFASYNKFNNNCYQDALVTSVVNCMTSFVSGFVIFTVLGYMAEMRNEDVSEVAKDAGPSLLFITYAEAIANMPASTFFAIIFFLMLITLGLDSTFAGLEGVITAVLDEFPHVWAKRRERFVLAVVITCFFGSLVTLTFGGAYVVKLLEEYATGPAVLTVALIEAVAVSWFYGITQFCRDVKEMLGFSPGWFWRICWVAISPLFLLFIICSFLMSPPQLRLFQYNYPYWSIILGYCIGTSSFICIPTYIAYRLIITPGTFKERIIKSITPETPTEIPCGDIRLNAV
Alpha2A, sequence (P08913 whole entry): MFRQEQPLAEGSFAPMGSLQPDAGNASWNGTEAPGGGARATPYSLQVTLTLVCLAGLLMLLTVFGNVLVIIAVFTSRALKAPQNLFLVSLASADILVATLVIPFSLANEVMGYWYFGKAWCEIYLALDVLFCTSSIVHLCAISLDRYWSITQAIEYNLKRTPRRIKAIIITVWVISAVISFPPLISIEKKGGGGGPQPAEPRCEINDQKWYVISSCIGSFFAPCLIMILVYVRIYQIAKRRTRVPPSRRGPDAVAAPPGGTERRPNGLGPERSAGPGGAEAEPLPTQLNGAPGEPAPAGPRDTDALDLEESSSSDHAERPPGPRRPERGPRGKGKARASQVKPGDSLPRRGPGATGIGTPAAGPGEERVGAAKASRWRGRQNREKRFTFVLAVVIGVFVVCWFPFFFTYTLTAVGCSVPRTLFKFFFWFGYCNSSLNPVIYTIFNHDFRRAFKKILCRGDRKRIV
H3, sequence (Q9Y5N1 whole entry): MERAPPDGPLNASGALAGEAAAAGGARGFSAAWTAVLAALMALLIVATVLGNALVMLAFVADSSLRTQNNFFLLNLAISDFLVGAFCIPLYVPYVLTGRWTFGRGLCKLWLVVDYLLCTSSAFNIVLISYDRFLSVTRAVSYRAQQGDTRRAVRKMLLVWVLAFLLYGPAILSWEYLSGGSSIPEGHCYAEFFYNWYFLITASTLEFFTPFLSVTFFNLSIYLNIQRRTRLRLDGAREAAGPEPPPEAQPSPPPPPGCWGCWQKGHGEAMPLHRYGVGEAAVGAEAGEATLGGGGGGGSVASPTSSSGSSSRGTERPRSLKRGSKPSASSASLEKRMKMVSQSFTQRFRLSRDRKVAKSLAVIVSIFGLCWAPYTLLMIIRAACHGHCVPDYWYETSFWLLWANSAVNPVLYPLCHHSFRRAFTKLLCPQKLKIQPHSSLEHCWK
Alpha2B, sequence (P18089 whole entry): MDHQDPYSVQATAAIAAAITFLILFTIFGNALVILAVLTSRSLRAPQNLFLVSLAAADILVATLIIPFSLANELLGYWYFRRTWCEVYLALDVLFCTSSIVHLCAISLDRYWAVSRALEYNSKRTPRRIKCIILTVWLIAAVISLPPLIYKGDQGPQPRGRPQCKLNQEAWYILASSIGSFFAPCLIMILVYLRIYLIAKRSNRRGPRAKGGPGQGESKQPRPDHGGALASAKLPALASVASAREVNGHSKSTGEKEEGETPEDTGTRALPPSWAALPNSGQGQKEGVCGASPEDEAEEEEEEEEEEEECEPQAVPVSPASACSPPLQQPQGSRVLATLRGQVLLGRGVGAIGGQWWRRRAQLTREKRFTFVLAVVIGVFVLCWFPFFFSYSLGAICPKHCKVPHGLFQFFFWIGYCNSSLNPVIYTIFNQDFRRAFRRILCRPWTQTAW
M2, sequence (P08172 whole entry): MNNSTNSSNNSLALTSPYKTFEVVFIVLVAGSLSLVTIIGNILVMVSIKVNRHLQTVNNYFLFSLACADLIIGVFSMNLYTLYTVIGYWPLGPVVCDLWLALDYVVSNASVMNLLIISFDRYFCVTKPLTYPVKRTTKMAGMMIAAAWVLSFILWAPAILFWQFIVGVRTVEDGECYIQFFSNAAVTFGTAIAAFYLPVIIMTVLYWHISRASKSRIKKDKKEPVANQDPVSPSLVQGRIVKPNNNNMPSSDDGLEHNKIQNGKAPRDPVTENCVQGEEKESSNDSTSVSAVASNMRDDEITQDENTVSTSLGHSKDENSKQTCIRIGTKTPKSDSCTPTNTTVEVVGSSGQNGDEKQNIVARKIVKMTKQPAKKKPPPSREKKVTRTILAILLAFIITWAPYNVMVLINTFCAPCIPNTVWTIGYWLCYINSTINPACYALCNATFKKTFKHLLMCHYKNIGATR

By Ki is commonly meant a measure of affinity in units of concentration, obtained from inhibition or displacement. A word on the IC50: it is the midpoint of a concentration-inhibition curve. Take `COc1ccccc1C(Cc1ccccc1)N1CCCCC1` (centres unmarked) [2-MXP, 2-methoxydiphenidine]: the Ki on Alpha2C was 1.94 µM; at M5, 1.53 µM; on Alpha2A, 2 µM. For the same compound, the “effect on PPI” value is “did disrupt PPI; also recorded: significant inhibition of PPI” with Sprague–Dawley rats (20 mg/kg s.c.) and “did not alter PPI” in the experiment on Sprague–Dawley rats (doses up to 10 mg/kg s.c.). For the same compound, the IC50 at Human SERT was greater than 10 µM.
As usually defined, the ED50 is the dose that gives a 50% effect, or the effect in half of the subjects. Turning to `c1ccc(CC(c2ccccc2)N2CCCCC2)cc1` (centres unmarked) [DPH, diphenidine], the Ki on Alpha2B came out at 4.38 µM; at Alpha2C it was 3.05 µM; at M5 it was 1.65 µM; at H3, 1.02 µM; on M1, 2.65 µM; on M2, 3.7 µM. Moreover, the “effect on average PPI” value in the experiment with Sprague–Dawley rats (10 mg/kg s.c., first dose-response experiment) is recorded as “significantly reduced average PPI”. Also, the “effect on PPI” value in the experiment on Sprague–Dawley rats (10, 20 and 30 mg/kg s.c., second experiment) was “reduced PPI at all three prepulse intensities”. In addition, the ED50 in the experiment with Sprague–Dawley rats (10 min before test) was found to be 9.5 mg/kg; with Sprague–Dawley rats (95% CI in parentheses) it was 31.5 µmol/kg. For the same compound, the IC50 against Human SERT is greater than 10 µM.
